Reference: patent US9115092B2, “Substituted quinazoline and pyrido-pyrimidine derivatives” (Asana Biosciences, LLC, priority 2010, dated 2015)

Columns and labels:
[1] = target: T1, PI3Kα (wild-type), P110/P85α (Homo sapiens, UniProt P42336); assay: PI3 Kinase TR-FRET assay, PI3Kα (wild-type); assay type: biochemical
T1 construct: made in house; host or cells: SF9 insect cells
In short: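 TR-FRET read-out of PIP3 formation via biotin-PIP3 displacement (665/615 nm ratio) gave IC50 curves. Enzyme: 5 ng wild-type P110/P85α from Sf9 cells, 60 min RT with compound and PIP2 (MgCl2 40 mM, DTT 5 mM), then 30 min RT kinase reaction at 10 μM ATP and 10 μM PIP2.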

mTOR kinase = target: T2, mTOR kinase (Homo sapiens, UniProt P42345); assay: mTOR kinase TR-FRET assay; assay type: biochemical; settings: read-out: mTO R
T2 construct: purchased Millipore, USA
In short: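 TR-FRET read-out (340 nm excitation, 615/665 nm emission) of Thr389 phosphorylation of a ULight-labeled p70 S6K peptide (50 nM) by mTOR, 20 μM ATP, 60 min room temperature after 60 min compound preincubation. Buffer HEPES pH 7.5 with MnCl2, EGTA; IC50 by sigmoidal dose-response.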

PC3 cells = assay: XTT assay for cell viability, PC3 cells; assay type: cell-based, human; settings: Homo sapiens, PC-3, cell viability
Procedure: Using a commercial kit from Sigma Aldrich (Catalog #X34251) and following its protocol, PC3 cells in the log phase of growth were employed and seeded at an optimal density of 1000 cell/well on to 96 well plates and incubated for 24 h followed by the addition of compounds of formula (I) in serial dilutions. Compound dilutions were made in DMSO. The cells were incubated with the compounds of formula (I) for 96 h and XTT tetrazolium dye (Sigma, USA) was subsequently added and incubated at 37° C. After the color formation, absorbance was measured at 465 nm in a Spectramax® Gemini spectrophotometer. EC50 values were calculated using a sigmoidal dose response curve fit in GraphPad Prism® v5 software. The tested compounds of formula (I) which caused inhibition of PC3 cell proliferation as determined by this assay protocol are shown in Table 2.

T1 sequence (P42336 whole entry): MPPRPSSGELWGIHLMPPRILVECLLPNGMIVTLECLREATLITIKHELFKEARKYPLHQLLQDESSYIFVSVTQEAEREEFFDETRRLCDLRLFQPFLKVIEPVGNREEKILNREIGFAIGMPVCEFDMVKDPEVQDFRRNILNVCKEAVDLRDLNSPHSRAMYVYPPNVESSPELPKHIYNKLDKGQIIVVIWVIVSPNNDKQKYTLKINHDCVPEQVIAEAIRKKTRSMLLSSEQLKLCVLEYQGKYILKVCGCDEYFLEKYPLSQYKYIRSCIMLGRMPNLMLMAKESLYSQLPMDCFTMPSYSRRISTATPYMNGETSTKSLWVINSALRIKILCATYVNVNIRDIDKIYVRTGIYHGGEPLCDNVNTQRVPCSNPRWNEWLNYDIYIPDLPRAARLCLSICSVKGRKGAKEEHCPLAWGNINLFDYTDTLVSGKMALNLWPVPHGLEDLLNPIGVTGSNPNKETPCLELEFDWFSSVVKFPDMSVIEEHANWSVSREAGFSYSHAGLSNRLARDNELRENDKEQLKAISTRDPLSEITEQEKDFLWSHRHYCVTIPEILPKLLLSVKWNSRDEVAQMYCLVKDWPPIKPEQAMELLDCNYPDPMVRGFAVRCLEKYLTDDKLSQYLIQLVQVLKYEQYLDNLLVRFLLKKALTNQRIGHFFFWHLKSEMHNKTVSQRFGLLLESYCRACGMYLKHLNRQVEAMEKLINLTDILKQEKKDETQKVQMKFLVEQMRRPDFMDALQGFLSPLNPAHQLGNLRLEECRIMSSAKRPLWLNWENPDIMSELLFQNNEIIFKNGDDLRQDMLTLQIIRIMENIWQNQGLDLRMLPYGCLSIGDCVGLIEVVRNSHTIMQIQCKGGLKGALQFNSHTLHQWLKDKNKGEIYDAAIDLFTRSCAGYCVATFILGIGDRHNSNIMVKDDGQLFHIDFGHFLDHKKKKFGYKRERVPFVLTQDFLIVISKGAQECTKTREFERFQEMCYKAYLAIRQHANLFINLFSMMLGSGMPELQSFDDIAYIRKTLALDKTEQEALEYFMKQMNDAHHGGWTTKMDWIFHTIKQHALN
T1 sequence (P27986 whole entry partner): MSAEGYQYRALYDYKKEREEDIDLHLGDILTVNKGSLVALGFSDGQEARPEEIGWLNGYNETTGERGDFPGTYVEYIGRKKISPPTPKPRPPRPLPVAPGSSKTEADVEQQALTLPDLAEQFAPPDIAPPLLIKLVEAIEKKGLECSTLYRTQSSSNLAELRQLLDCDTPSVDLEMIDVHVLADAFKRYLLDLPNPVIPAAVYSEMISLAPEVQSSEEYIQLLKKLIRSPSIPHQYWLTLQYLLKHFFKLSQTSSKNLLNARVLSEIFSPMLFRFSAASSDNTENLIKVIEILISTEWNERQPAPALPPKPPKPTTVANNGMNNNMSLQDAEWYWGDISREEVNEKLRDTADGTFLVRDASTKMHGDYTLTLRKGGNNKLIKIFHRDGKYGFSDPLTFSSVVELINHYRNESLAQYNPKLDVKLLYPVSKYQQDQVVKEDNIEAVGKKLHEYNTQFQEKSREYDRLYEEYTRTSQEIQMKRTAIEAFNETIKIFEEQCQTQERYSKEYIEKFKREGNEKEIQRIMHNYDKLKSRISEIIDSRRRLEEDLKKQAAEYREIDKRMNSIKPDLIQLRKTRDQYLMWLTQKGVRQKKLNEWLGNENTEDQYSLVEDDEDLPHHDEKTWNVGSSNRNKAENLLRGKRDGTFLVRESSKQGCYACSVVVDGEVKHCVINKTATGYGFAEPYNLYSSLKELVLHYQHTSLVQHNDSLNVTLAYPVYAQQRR

| Structure (SMILES) | IC50 [1] [nM] | IC50 (mTOR kinase) [nM] | IC50 (PC3 cells) [nM] |
| --- | --- | --- | --- |
| CN1CCN(C(=O)c2ccc(NC(=O)Nc3ccc(-c4nc(N5CCOCC5)c5cc(F)c(-c6cccnc6)cc5n4)cc3)cc2)CC1 [Example 4, 1-[4(6-Fluoro-4-morpholin-4-yl-7-pyridin-3-yl-quinazolin-2-yl)-phenyl]-3-[4-(4-methyl-piperazine-1-carbonyl)-phenyl]-urea] | < 50 | < 50 | < 100 |
| CN(C)C(=O)c1ccc(NC(=O)Nc2ccc(-c3nc(N4CCOCC4)c4cccc(-c5cccc(O)c5)c4n3)cc2)cc1 [Example 5, 4-(3-{4-[8-(3-Hydroxy-phenyl)-4-morpholin-4-yl-quinazolin-2-yl]-phenyl}-ureido)-N,N-dimethyl-benzamide] | 50 to 200 | < 50 | < 100 |
| CN(C)C(=O)c1ccc(NC(=O)Nc2ccc(-c3nc(N4CCOCC4)c4cccc(-c5ccc(F)nc5)c4n3)cc2)cc1 [Example 6, 4-(3-{4-[8-(6-Fluoro-pyridin-3-yl)-4-morpholin-4-yl-quinazolin-2-yl]-phenyl}-ureido)-N,N-dimethyl-benzamide] | 50 to 200 | < 50 | 100 to 500 |
| CN(C)C(=O)c1ccc(NC(=O)Nc2ccc(-c3nc(N4CCOCC4)c4ncc(-c5cncnc5)cc4n3)cc2)cc1 [Example 9, N,N-Dimethyl-4-{3-[4-(4-morpholin-4-yl-7-pyrimidin-5-yl-pyrido[3,2-d]-pyrimidin-2-yl)-phenyl]-ureido}-benzamide] | < 50 | < 50 | < 100 |
| CC(=O)Nc1ccc(NC(=O)Nc2ccc(-c3nc(N4CCOCC4)c4ccc(-c5ccc(C)o5)cc4n3)cc2)cc1 [Example 17, N-(4-(3-(4-(7-(5-methylfuran-2-yl)-4-morpholino-quinazolin-2-yl)phenyl)ureido)phenyl)acetamide] | 50 to 200 | 50 to 200 | 100 to 500 |
| CN(C)C(=O)c1ccc(NC(=O)Nc2ccc(-c3nc(N4CCOCC4)c4ccc(-c5cccnc5F)cc4n3)cc2)cc1 [Example 21, 4-(3-{4-[7-(2-fluoro-pyridin-3-yl)-4-morpholin-4-yl-quinazolin-2-yl]-phenyl}-ureido)-N,N-dimethyl-benzamide] | 50 to 200 | < 50 | 100 to 500 |
| CN(C)C(=O)c1ccc(NC(=O)Nc2ccc(-c3nc(N4CCOCC4)c4ccc(-c5cccc(NS(C)(=O)=O)c5)cc4n3)cc2)cc1 [Example 23, 4-(3-{4-[7-(3-methanesulfonylamino-phenyl)-4-morpholin-4-yl-quinazolin-2-yl]-phenyl}-ureido)-N,N-dimethyl-benzamide] | < 50 | 50 to 200 | 501 to 5000 |
| CS(=O)(=O)c1cccc(-c2ccc3c(N4CCOCC4)nc(-c4ccc(NC(=O)Nc5ccc(C(N)=O)cc5)cc4)nc3c2)c1 [Example 25, 4-(3-{4-[7-(3-methanesulfonyl-phenyl)-4-morpholin-4-yl-quinazolin-2-yl]-phenyl}-ureido)-benzamide] | 50 to 200 | 50 to 200 | 501 to 5000 |
| CN1CCN(C(=O)c2ccc(NC(=O)Nc3ccc(-c4nc(N5CCOCC5)c5ccc(-c6cccnc6F)cc5n4)cc3)cc2)CC1 [Example 26, 1-{4-[7-(2-fluoro-pyridin-3-yl)-4-morpholin-4-yl-quinazolin-2-yl]-phenyl}-3-[4-(4-methyl-piperazine-1-carbonyl)-phenyl]-urea] | < 50 | < 50 | < 100 |
| CN1CCN(C(=O)c2ccc(NC(=O)Nc3ccc(-c4nc(N5CCOCC5)c5ccc(-c6cnn(C)c6)cc5n4)cc3)cc2)CC1 [Example 27, 1-[4-(4-methyl-piperazine-1-carbonyl)-phenyl]-3-{4-[7-(1-methyl-1H-pyrazol-4-yl)-4-morpholin-4-yl-quinazolin-2-yl]-phenyl}-urea] | 50 to 200 | < 50 | < 100 |
| CN(C)C(=O)c1ccc(NC(=O)Nc2ccc(-c3nc(N4CCOCC4)c4ccc(-c5cccnc5F)cc4n3)cc2)cn1 [Example 28, 5-(3-{4-[7-(2-fluoro-pyridin-3-yl)-4-morpholin-4-yl-quinazolin-2-yl]-phenyl}-ureido)-pyridine-2-carboxylic acid dimethylamide] | 50 to 200 | < 50 | < 100 |
| CN(C)C(=O)c1ccc(NC(=O)Nc2ccc(-c3nc(N4CCOCC4)c4cc(F)c(-c5cccnc5)cc4n3)cc2)cc1 [Example 29, 4-{3-[4-(6-fluoro-4-morpholin-4-yl-7-pyridin-3-yl-quinazolin-2-yl)-phenyl]-ureido}-N,N-dimethyl-benzamide] | < 50 | < 50 | < 100 |
| CN(C)C(=O)c1ccc(NC(=O)Nc2ccc(-c3nc(N4CCOCC4)c4cc(F)c(-c5cncnc5)cc4n3)cc2)cc1 [Example 30, 4-{3-[4-(6-fluoro-4-morpholin-4-yl-7-pyrimidin-5-yl-quinazolin-2-yl)-phenyl]-ureido}-N,N-dimethyl-benzamide] | < 50 | < 50 | < 100 |
| CN(C)C(=O)c1ccc(NC(=O)Nc2ccc(-c3nc(N4CCOCC4)c4ccc(-c5cccc(S(C)(=O)=O)c5)cc4n3)cc2)cn1 [Example 31, 5-(3-{4-[7-(3-methanesulfonyl-phenyl)-4-morpholin-4-yl-quinazolin-2-yl]-phenyl}-ureido)-pyridine-2-carboxylic acid dimethylamide] | 50 to 200 | < 50 | 100 to 500 |

The remaining lines, values ahead:

| IC50 [1] [nM] | IC50 (mTOR kinase) [nM] | IC50 (PC3 cells) [nM] | Structure (SMILES) |
| --- | --- | --- | --- |
| 50 to 200 | < 50 | < 100 | Cc1ccc(-c2ccc3c(N4CCOCC4)nc(-c4ccc(NC(=O)Nc5ccc(C(=O)N6CCC(N(C)C)C6)cc5)cc4)nc3c2)o1 (stereo in doubt) [Example 195, (S)-1-(4-(3-(dimethylamino)pyrrolidine-1-carbonyl)phenyl)-3-(4-(7-(5-methylfuran-2-yl)-4-morpholino-quinazolin-2-yl)phenyl)urea] |
| < 50 | < 50 | 201 to 10000 | NC1CCN(C(=O)c2ccc(NC(=O)Nc3ccc(-c4nc(N5CCOCC5)c5ccc(-c6ccco6)cc5n4)cc3)cc2)C1 (stereo in doubt) [Example 234, (S)-1-(4-(3-aminopyrrolidine-1-carbonyl)phenyl)-3-(4-(7-(furan-2-yl)-4-morpholino-quinazolin-2-yl)phenyl)urea] |
| < 50 | < 50 | 501 to 5000 | CN1CCN(C(=O)c2ccc(NC(=O)Nc3ccc(-c4nc(N5CCOCC5)c5ccc(-c6cccc(S(C)(=O)=O)c6)cc5n4)cc3)cc2)CC1 [Example 32, 1-(4-(4-methylpiperazine-1-carbonyl)phenyl)-3-(4-(7-(3-(methylsulfonyl)phenyl)-4-morpholino-quinazolin-2-yl)phenyl)urea] |
| < 50 | < 50 | < 100 | CN(C)C(=O)c1ccc(NC(=O)Nc2ccc(-c3nc(N4CCOCC4)c4ccc(-c5cncc(S(C)(=O)=O)c5)cc4n3)cc2)cc1 [Example 34, 4-(3-{4-[7-(5-methanesulfonyl-pyridin-3-yl)-4-morpholin-4-yl-qinazolin-2-yl]-phenyl}-ureido)-N,N-dimethyl-benzamide] |
| < 50 | < 50 | < 100 | CN(C)C(=O)c1ccc(NC(=O)Nc2ccc(-c3nc(N4CCOCC4)c4cc(F)c(-c5cccc(S(C)(=O)=O)c5)cc4n3)cc2)cc1 [Example 36, 4-(3-{4-[6-fluoro-7-(3-methanesulfonyl-phenyl)-4-morpholin-4-yl-quinazolin-2-yl]-phenyl}-ureido)-N,N-dimethyl-benzamide] |
| 50 to 200 | 50 to 200 | 100 to 500 | CN1CCN(C(=O)c2ccc(NC(=O)Nc3ccc(-c4nc(N5CCOCC5)c5ccc(-c6ccsc6)cc5n4)cc3)cc2)CC1 [Example 37, 1-[4-(4-methyl-piperazine-1-carbonyl)-phenyl]-3-[4-(4-morpholin-4-yl-7-thiophen-3-yl-quinazolin-2-yl)-phenyl]-urea] |
| < 50 | < 50 | < 100 | CN(C)C(=O)c1ccc(NC(=O)Nc2ccc(-c3nc(N4CCOCC4)c4cc(F)c(-c5cncc(S(C)(=O)=O)c5)cc4n3)cc2)cc1 [Example 38, 4-(3-{4-[6-fluoro-7-(5-methanesulfonyl-pyridin-3-yl)-4-morpholin-4-yl-quinazolin-2-yl]-phenyl}-ureido)-N,N-dimethyl-benzamide] |
| < 50 | < 50 | < 100 | CN(C)C(=O)c1ccc(NC(=O)Nc2ccc(-c3nc(N4CCOCC4)c4ncc(-c5cccc(S(C)(=O)=O)c5)cc4n3)cc2)cc1 [Example 39, 4-(3-{4-[7-(3-methanesulfonyl-phenyl)-4-morpholin-4-yl-pyrido[3,2-d]pyrimidin-2-yl]-phenyl}-ureido)-N,N-dimethyl-benzamide] |
| < 50 | < 50 | 100 to 500 | Cc1ccc(-c2cnc3c(N4CCOCC4)nc(-c4ccc(NC(=O)Nc5ccc(C(=O)N(C)C)cc5)cc4)nc3c2)o1 [Example 43, N,N-dimethyl-4-(3-{4-[7-(5-methyl-furan-2-yl)-4-morpholin-4-yl-pyrido[3,2-d]pyrimidin-2-yl]-phenyl}-ureido)-benzamide] |
